Data as given in patent US20230393118A1, “DEVICES AND METHODS FOR MONITORING CELLS, TISSUES, OR ORGANS-ON-A-CHIP” (University of Rochester, priority 2020, published 2023).

Tests used:
[1] = measured plasma drug concentration or target trough, provided by pharmaceutical makers as general guidelines; cited from earlier work
[2] = estimated in rodents in the literature; cited from earlier work
[3] = test system: 16HBE cells; assay: Real-time photonic ring sensor detection of cytokine secretion from 16HBE cells exposed to LPS; type: cell-based, human; details: LPS 1 μg/mL in DMEM, 30 μL/min for 3 hours, 37° C.
Experimental: 16HBE cells were seeded on the membrane of the exemplar device and allowed to adhere to the membrane for 3 hours. The device was then connected to a peristaltic pump, which contacted the cells with Dulbecco's Modified Eagles' Medium (DMEM) at a low flow rate (˜30 μL/min) overnight. The next day, the device was set on a temperature-controlled stage (37° C.) and DMEM doped with LPS (at 1 μg/mL) was flowed over the cells (through the top channel) at 30 μL/min for 3 hours. Spectra were measured continuously to observe any shifts in resonance of the photonic ring resonators over time.
FIG. 1F is a graph with a Y axis showing the wavelength of light resonant in the test and the control ring sensors, with longer wavelengths towards the top, and an X axis showing time in seconds following exposure of the cells to LPS. […]
FIG. 1G presents graphs showing the results of subtracting the shifts in the […] (indicating non-specific binding) from that of the […] for two cytokines, IL-6 (left graph) and IL-1B (right-hand graph). […] For the reader's attention, it is noted that the scale of the two graphs is different, with much smaller quantities of cytokine being detected in the right-hand graph. […]

[4] = test system: tendon fibroblasts; assay: Tendon fibroblasts seeded on axially-constrained hydrogel treated with TGF-β1; type: cell-based; details: fibroblasts differentiate into myofibroblasts
From the text: Subsequently, activation of α-SMA+ve myofibroblasts is evident even after 28 dpi.

Compound: CO[C@H]1C[C@@H]2CC[C@@H](C)[C@@](O)(O2)C(=O)C(=O)N2CCCC[C@H]2C(=O)O[C@H]([C@H](C)C[C@@H]2CC[C@@H](OCCO)[C@H](OC)C2)CC(=O)[C@H](C)/C=C(\C)[C@@H](O)[C@@H](OC)C(=O)[C@H](C)C[C@H](C)/C=C/C=C/C=C/1C [Everolimus]
- Target whole blood trough concentrations (plasma concentrations) [1]: 5 to 15 ng/mL
- ED50 [2]: ~0.1 to 2.38 mg/kg

Compound: CO[C@H]1C[C@@H]2CC[C@@H](C)[C@@](O)(O2)C(=O)C(=O)N2CCCC[C@H]2C(=O)O[C@H]([C@H](C)C[C@@H]2CC[C@@H](O)[C@H](OC)C2)CC(=O)[C@H](C)/C=C(\C)[C@@H](O)[C@@H](OC)C(=O)[C@H](C)C[C@H](C)/C=C/C=C/C=C/1C [Sirolimus]
- Target whole blood trough concentrations (plasma concentrations) [1]: 16 to 24 ng/mL

Compound: Lipopolysaccharide [LPS]
- Time at which secretion of cytokines (IL-6, IL-1β) begins after LPS exposure [3]: about 70 minutes

Compound: TGF-β1: cytokine used to induce myofibroblast differentiation in tendon fibroblasts
- α-SMA gene (Acta) expression and hydrogel lateral contraction [4]: dose-dependent increase
